The results in this text go back to US20050014849A1, “Antifungal phenylethylene” (priority 2001, published 2005).

SMILES strings stand for the structures. ≈ marks a conversion by molar mass, not a printed value. Entries after “also recorded” stand apart in the source; their conditions may differ. Where only a bound is given, the exact number is not on record here.

Experiment [1] relates to Stenotrophomonas maltophilia ATCC 13637. As to the kind of experiment: NCCLS disk susceptibility test. The experiment is classed as cell-based. Particulars: disk diffusion. The method, then:
Antimicrobial activity was assayed by National Committee for Clinical Laboratory Standards (NCCLS) disk susceptibility tests. Isolated colonies from overnight cultures were suspended and diluted as recommended to yield approximately 1-2×10^8 cfu/ml, and 50 μl of this preparation immediately spread on agar plates. NCCLS recommended agar media were used for S. pneumoniae and N. gonorrhoeae, and Mueller-Hinton agar for all other bacteria. Yeast strains were tested on SDA. Excess moisture was absorbed for 10 min prior to application of 6 mm paper discs containing two-fold dilutions of TMPN in sterile DMSO.

The subject of another experiment is C. tropicalis (9). As to the kind of experiment: Broth macrodilution MIC/MFC. The experiment is classed as cell-based, Candida tropicalis. On the procedure:
(§1) TMPN was screened against yeasts by the broth macrodilution assay according to the NCCLS [7]. Yeasts were suspended and diluted as recommended to yield final inocula ranging from 0.5-2.5×10^3 cfu/ml. Tests were performed in sterile 12 by 75 mm plastic tubes containing two-fold dilutions of TMPN in 0.165 M morpholinepropanesulfonic acid buffered RPMI 1640 medium (pH 7.0). One tube was again left drug free (but contained an equivalent volume of DMSO) for a turbidity control. Tubes were incubated without agitation at the appropriate temperature (see Fungal Strains section above). MICs were determined after 72 h for Cryptococcus and after 48 h for other yeast genera. The MIC was defined as the lowest concentration of TMPN that inhibited all visible growth of the test organism (optically clear).
(§2) Minimum fungicidal concentrations (MFCs) were determined by subculturing 0.1 ml from each tube with no visible growth in the MIC broth macrodilution series onto the appropriate drug-free plates (see Fungal Strains section above).

The subject of experiment [2] is C. viswanathii ATCC 22981. As to the kind of experiment: Broth macrodilution MIC/MFC. Type of experiment: cell-based, Candida viswanathii. On the procedure:
as §1, §2

The next experiment deals with N. gonorrhoeae. The experiment in a line: NCCLS broth macrodilution assay, antibacterial. The experiment is classed as cell-based. Particulars: Neisseria gonorrhoeae. The method, then: (§3) The antibacterial activity of TMPN was also assessed by the NCCLS broth macrodilution assay. Isolated colonies from overnight cultures were suspended and diluted as recommended to yield final inocula of approximately 5×10^5 cfu/ml. Tests were performed in sterile plastic tubes (12 by 75 mm) containing twofold dilutions of TMPN in gonococcal typing broth (Neisseria), Mueller Hinton II (MHII) (cation adjusted) broth containing 3% lysed horse blood (Streptococcus) or MHII broth (all other bacteria). One tube was left drug-free (but contained an equivalent volume of DMSO) for a turbidity control. Tubes were incubated without agitation at 37° C. with 5% CO2 (Streptococcus, Neisseria), or at 35° C. (remaining bacteria). MICs were determined after 24 h for all bacteria except Micrococcus, which was read at 48 h. The MIC was defined as the lowest concentration of drug that inhibited all visible growth of the test organism (optically clear).

The subject of a further experiment is all bacteria. The experiment in a line: NCCLS broth macrodilution assay, antibacterial. The experiment is classed as cell-based. Particulars: Neisseria gonorrhoeae; all bacteria (single exception N. gonorrhoeae). The method, then:
as §3

In experiment [3] the test system is 132 reference strains and clinical isolates. The experiment in a line: Broth macrodilution MIC/MFC, all fungi tested (summary). Type of experiment: cell-based. On the procedure: as §1
Susceptibility testing of filamentous fungi was also conducted. Broth macrodilution susceptibility testing of P. lilacinus, Rhizopus spp. and Aspergillus spp. was performed in accordance with a proposed standardized procedure with slight modification. To induce conidium and sporangiospore formation, fungi were grown on PDA slants at 35° C. for 6 days (P. lilacinus, Rhizopus spp., all Aspergillus species except A. nidulans) or 3 days (A. nidulans). Fungal slants were covered with sterile 0.85% NaCl (P. lilacinus, Rhizopus spp., all Aspergillus species except A. nidulans) or 0.05% Tween 80 (A. nidulans), and suspensions were made by gently probing the colonies with the tip of a sterile Pasteur pipette. The resulting mixture of hyphal fragments and conidia or sporangiospores was withdrawn and transferred to a sterile clear microcentrifuge tube, and heavy particles were allowed to settle for 10 min. The upper homogenous suspension was transferred to a sterile microcentrifuge tube, vortexed for 15 s, adjusted spectrophotometrically, and diluted in sterile 0.165 M MOPS-buffered RPMI medium, pH 7.0, to yield final inocula ranging from 0.5-2.5×10^3 cfu/ml. Susceptibility to TMPN was then determined by broth macrodilution as described above for yeast isolates. MICs were read after 48 h The MIC was defined as the lowest concentration of TMPN that inhibited all visible growth of the test organism (optically clear).
as §2
Possible host effects were also evaluated. Broth macrodilution assays were performed with RPMI medium prepared at pH 5, pH 6, and pH 7, and in RPMI medium with and without 50% normal human serum (Lampire Biological Labs). The pH experiments were performed twice on separate days.

The test system of another experiment is CNS SF-295. The experiment in a line: Sulforhodamine B cancer cell growth inhibition. Type of experiment: cell-based. Particulars: Homo sapiens, 48 h, read-out: GI50 (inhibition of 50% of cell growth). The method, then:
(§4) An investigation TMPN's in vitro antineoplastic activity was also conducted. This investigation included an analysis of both cell growth, and of the effects of TMPN upon tubulin. Inhibition of cancer cell growth was assessed using the Sulforhodamine B assay as previously described. Briefly, cells in 5% fetal calf serum/RPMI-1640 were inoculated into 96 well plates, incubated 24 h and 10-fold dilutions of TMPN added. After a 48 h incubation, plates were fixed with trichloroacetic acid, washed, stained with Sulforhodamine B and read with an automated microtiter plate reader.

The next experiment deals with Colon KM20L2. As to the kind of experiment: Sulforhodamine B cancer cell growth inhibition. Particulars: Homo sapiens, KM-20L2, 48 h, read-out: GI50 (inhibition of 50% of cell growth). Type of experiment: cell-based. On the procedure: as §4
A further experiment relates to Lung-NSC NCI-H460. As to the kind of experiment: Sulforhodamine B cancer cell growth inhibition. The experiment is classed as cell-based. Particulars: Homo sapiens, 48 h, read-out: GI50 (inhibition of 50% of cell growth). On the procedure:
as §4

Another experiment deals with Ovarian OVCAR-3. As to the kind of experiment: Sulforhodamine B cancer cell growth inhibition. Particulars: Homo sapiens, 48 h, read-out: GI50 (inhibition of 50% of cell growth). Type of experiment: cell-based. The method, then:
as §4

For a further experiment, the system named is Pancreas BXPC-3. The experiment in a line: Sulforhodamine B cancer cell growth inhibition. The experiment is classed as cell-based. Particulars: Homo sapiens, 48 h, read-out: GI50 (inhibition of 50% of cell growth). The method, then:
as §4

A further experiment concerns Prostate DU-145. The experiment in a line: Sulforhodamine B cancer cell growth inhibition. Type of experiment: cell-based. Particulars: Homo sapiens, 48 h, read-out: GI50 (inhibition of 50% of cell growth). The method, then:
as §4

Another experiment relates to T1, bovine brain tubulin.
T1 construct: Electrophoretically homogeneous bovine brain tubulin [12]
As to the kind of experiment: Colchicine binding assay. Particulars: 10 min at 37° C. On the procedure: Electrophoretically homogeneous bovine brain tubulin [12] was used in studies to evaluate the effects of TMPN on in vitro tubulin polymerization and the binding of […] (Dupont-NEN) to tubulin. These studies were performed as described previously. In the polymerization assay, varying drug concentrations were added to 1 mg/ml tubulin to determine the amount of drug that would inhibit the extent of the reaction by 50% (20 min incubation at 30° C.) (IC50 value). In the colchicine binding assay, the effect of varying drug concentrations on the binding of 2 μg/ml colchicine to 100 μg/ml tubulin was measured after 10 min at 37° C. (control reaction about 50% complete).

Take `COc1cc(C=C[N+](=O)[O-])cc(OC)c1OC` [TMPN, 1-(3′,4′,5′-trimethoxyphenyl)-2-nitro-ethylene]: the values for the MIC (in experiment [1]; with N. gonorrhoeae; with all bacteria) were above 100 μg/disk, 4 µg/mL (≈ 16.7 µM) and above 64 µg/mL, respectively. Moreover, the “MIC Range” value in the experiment on C. tropicalis (9) was 32 to 64 µg/mL; in experiment [2], 32 µg/mL (≈ 134 µM). In experiment [2], the “MFC Range” value was above 64 µg/mL. Besides, in [3], the “antifungal spectrum in broth macrodilution assays” value is “broad-spectrum antifungal activity”. Besides, the “activity in the presence of serum” value in [3] (50% human serum) is listed as “not active against all species”. In addition, the fungicidal action entry in [3] (132 reference strains and clinical isolates, incl. those resistant to fluconazole, ketoconazole, amphotericin B or flucytosine) is on record as “fungicidal for the majority”. The “effect of media pH on activity (MICs and MFCs)” value in [3] (pH 5, pH 6 and pH 7) is reported as “unaffected; also recorded: identical or differed by no more than a single 2-fold dilution”. The GI50 was found to be 2 µg/mL (≈ 8.36 µM) in the experiment on CNS SF-295; 1.4 µg/mL (≈ 5.85 µM) in the experiment with Colon KM20L2; 1.4 µg/mL (≈ 5.85 µM) in the experiment on Lung-NSC NCI-H460; 1.8 µg/mL (≈ 7.52 µM) with Ovarian OVCAR-3; 1.6 µg/mL (≈ 6.69 µM) with Pancreas BXPC-3; 1.1 µg/mL (≈ 4.6 µM) with Prostate DU-145. For the same molecule, the “inhibition of [^3H]colchicine binding to tubulin” value turned out to be 13±0.5% in the experiment with bovine brain tubulin (5 μM (combretastatin A-4 1.6 μg/ml; TMPN 1.2 μg/ml)) and 69±0.5% with bovine brain tubulin (12 μg/ml (50 uM)).

As usually defined, the GI50 is the concentration giving 50% growth inhibition.
